The source of these data is patent publication US6720346B2, “Thiazole benzamide derivatives and pharmaceutical compositions for inhibiting cell proliferation” (Agouron Pharmaceuticals, Inc., priority 2001, dated 2004).

One experiment concerns the target T1, human CDK4/cyclin D3 (Homo sapiens, UniProt P11802).
T1 construct: made in house; host or cells: insect cells co-infected with baculovirus vectors
Description: Inhibition of CDK4/cyclin D retinoblastoma kinase activity (Ki; % inhibition). It is filed as biochemical. An outline of the steps: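 Radiometric filter-binding read-out: Rb residues 386-928 phosphorylated by 5 nM CDK4/cyclin D3(1-264) from baculovirus-infected insect cells, 25 μM ATP, HEPES pH 7.4, 30 °C. Run 20 min, or 60 min for tight-binding inhibitors. Screening at 30 nM theoretical compound; apparent Ki by competitive-inhibition fitting.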

A further experiment has as its system HCT-116 cell line. Nature of the experiment: Inhibition of cell growth, MTT tetrazolium salt assay. It is filed as cell-based. An outline of the steps: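 Growth inhibition was read as MTT-formazan absorbance at 540 nm, after 4 h with 0.2 mg/mL MTT. Before that, HCT-116 cells had been exposed 3–5 days at 37 °C to compounds in 0.5% (v/v) DMSO, added 4 h after plating. 50% and 90% inhibitory concentrations were taken from semi-log concentration–inhibition plots versus vehicle controls.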
(Tetrazolium dyes change colour on reduction, which living cells bring about.)

The next experiment has as its target T2, CDK2/cyclin A (Homo sapiens, UniProt P24941).
T2 construct: made in house; host or cells: CDK2: insect cells (baculovirus); cyclin A: E. coli
Nature of the experiment: Inhibition of CDK2/cyclin A retinoblastoma kinase activity (Ki; % inhibition). It is filed as biochemical. The gist of the method:
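Apparent Ki values came from fitting concentration-dependent activity data to competitive (or competitive tight-binding) models, and % inhibition from single 30 nM screens of library compounds. Activity was measured as ³²P/³³P incorporation from 25 μM ATP into an Rb substrate by 10 or 19 nM CDK2/delta cyclin A at 30 °C over 60–75 min, pH 7.4.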

Where [1] appears, read: HCT-116 cells, 0.25 μM compound.

Counter-ions that a name gives are not always drawn.

T1 sequence (P11802 whole entry): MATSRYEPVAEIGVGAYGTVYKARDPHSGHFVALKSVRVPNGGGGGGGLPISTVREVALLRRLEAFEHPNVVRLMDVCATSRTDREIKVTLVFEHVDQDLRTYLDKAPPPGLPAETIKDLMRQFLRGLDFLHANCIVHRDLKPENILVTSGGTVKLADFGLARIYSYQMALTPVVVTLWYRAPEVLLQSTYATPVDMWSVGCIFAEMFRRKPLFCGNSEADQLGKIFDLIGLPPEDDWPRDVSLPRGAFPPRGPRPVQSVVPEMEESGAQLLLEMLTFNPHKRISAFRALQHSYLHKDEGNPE
T1 sequence (P30281 1-264 partner limits assumed): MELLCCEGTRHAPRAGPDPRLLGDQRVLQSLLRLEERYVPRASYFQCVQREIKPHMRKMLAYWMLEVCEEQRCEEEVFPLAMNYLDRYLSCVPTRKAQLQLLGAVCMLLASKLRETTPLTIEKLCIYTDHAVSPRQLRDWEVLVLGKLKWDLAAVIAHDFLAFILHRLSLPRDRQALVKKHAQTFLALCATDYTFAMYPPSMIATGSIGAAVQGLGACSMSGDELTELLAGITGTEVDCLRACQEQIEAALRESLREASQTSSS

In the case of `C[C@H](NC(=O)c1ccc(Nc2nc(N)c(C(=O)c3c(F)cccc3F)s2)cc1)c1ccccc1` [Example G167], the “CDK4 % Inhibition at 0.03 μM” value on human CDK4/cyclin D3 (at 0.03 μM) is reported as 29%. For the same compound, the “HCT-116 % Inhibition at 0.1 μM” value in the experiment with HCT-116 cell line (HCT-116, at 0.1 μM) was 26%. The “HCT-116 % Inhibition at 0.25 μM” value in the experiment on HCT-116 cell line (HCT-116, at 0.25 μM) was found to be 53%. On CDK2/cyclin A (at 0.03 μM), the “CDK2 % Inhibition at 0.03 μM” value came out at 19%.

With `CC(C)OCCCNC(=O)c1ccc(Nc2nc(N)c(C(=O)c3c(F)cccc3F)s2)cc1` [Example G135], the “CDK4 % Inhibition at 0.03 μM” value at human CDK4/cyclin D3 (at 0.03 μM) is recorded as 25%. In addition, the “HCT-116 % Inhibition at 0.1 μM” value in the experiment with HCT-116 cell line (HCT-116, at 0.1 μM) turned out to be 0%. In the experiment with HCT-116 cell line (HCT-116, at 0.25 μM), the “HCT-116 % Inhibition at 0.25 μM” value is 56%. Moreover, the “CDK2 % Inhibition at 0.03 μM” value on CDK2/cyclin A (at 0.03 μM) is recorded as 2%.

With `Nc1nc(Nc2ccc(C(=O)N[C@H](CO)CC3CCCCC3)cc2)sc1C(=O)c1c(F)cccc1F` [Example G359], the “CDK4 % Inhibition at 0.03 μM” value on human CDK4/cyclin D3 (0.03 μM compound) is listed as −5%. For the same compound, in the experiment with HCT-116 cell line (HCT-116 cells, 0.1 μM compound), the “HCT-116 % Inhibition at 0.1 μM” value is listed as 25%. In addition, the “HCT-116 % Inhibition at 0.25 μM” value in the experiment with HCT-116 cell line (setting [1]) was 69%. On CDK2/cyclin A (0.03 μM compound), the “CDK2 % Inhibition at 0.03 μM” value is listed as −7%.

Turning to `COc1ccc(NC(=O)c2ccc(Nc3nc(N)c(C(=O)c4c(F)cccc4F)s3)cc2)cc1OC` [Example G212], on human CDK4/cyclin D3 (0.03 μM compound), the “CDK4 % Inhibition at 0.03 μM” value worked out at 20%. Also, in the experiment on HCT-116 cell line (HCT-116 cells, 0.1 μM compound), the “HCT-116 % Inhibition at 0.1 μM” value is on record as 17%. In addition, in the experiment on HCT-116 cell line (setting [1]), the “HCT-116 % Inhibition at 0.25 μM” value came to 53%. Moreover, the “CDK2 % Inhibition at 0.03 μM” value on CDK2/cyclin A (0.03 μM compound) stood at 16%.

For the compound `Cc1ccc(NC(=O)c2ccc(Nc3nc(N)c(C(=O)c4c(F)cccc4F)s3)cc2)c(F)c1` [Example G284], the “CDK4 % Inhibition at 0.03 μM” value on human CDK4/cyclin D3 (0.03 μM compound) is −12%. The “HCT-116 % Inhibition at 0.1 μM” value in the experiment on HCT-116 cell line (HCT-116 cells, 0.1 μM compound) amounted to 4%. Also, the “HCT-116 % Inhibition at 0.25 μM” value with HCT-116 cell line (setting [1]) was 69%. Further, the “CDK2 % Inhibition at 0.03 μM” value at CDK2/cyclin A (0.03 μM compound) was −30%.

Take `CN(C)C1CCN(C(=O)c2ccc(Nc3nc(N)c(C(=O)c4c(F)cccc4F)s3)cc2)C1` (stereo not shown) [Example G29]: the “CDK4 % Inhibition at 0.03 μM” value at human CDK4/cyclin D3 (at 0.03 μM) was found to be 32%. In addition, in the experiment on HCT-116 cell line (HCT-116, at 0.25 μM, 0.25 µM), the “HCT-116 % Inhibition at 0.25 μM” value is 55%. Also, the “CDK2 % Inhibition at 0.03 μM” value at CDK2/cyclin A (at 0.03 μM) was determined as 4%.

As to `COC(=O)c1ccc(NC(=O)c2ccc(Nc3nc(N)c(C(=O)c4c(F)cccc4F)s3)cc2)cc1` [Example G61], the “CDK4 % Inhibition at 0.03 μM” value at human CDK4/cyclin D3 (at 0.03 μM) is reported as 19%. Also, in the experiment on HCT-116 cell line (HCT-116, at 0.25 μM), the “HCT-116 % Inhibition at 0.25 μM” value is reported as 58%. Moreover, the “CDK2 % Inhibition at 0.03 μM” value at CDK2/cyclin A (at 0.03 μM) amounted to 19%.

Turning to `Nc1nc(Nc2ccc(C(=O)NCCc3ccc(Cl)cc3)cc2)sc1C(=O)c1c(F)cccc1F` [Example G266], the “CDK4 % Inhibition at 0.03 μM” value at human CDK4/cyclin D3 (0.03 μM compound) amounted to 7%. For the same compound, in the experiment with HCT-116 cell line (HCT-116 cells, 0.1 μM compound), the “HCT-116 % Inhibition at 0.1 μM” value is given as 28%. Moreover, the “HCT-116 % Inhibition at 0.25 μM” value with HCT-116 cell line (setting [1]) is 30%. At CDK2/cyclin A (0.03 μM compound), the “CDK2 % Inhibition at 0.03 μM” value was determined as 0%.

Take `Cc1ccsc1C(=O)c1sc(Nc2ccc(C(=O)N[C@H](C)CN(C)C)cc2)nc1N` [Example A62, 4-{4-Amino-5-[1-(3-methyl-thiophen-2-yl)-methanoyl]-thiazol-2-ylamino}-N-(2-dimethylamino-1R-methyl-ethyl)-benzamide Trifluoroacetic Acid Salt]: the Ki came out at 120 nM at human CDK4/cyclin D3 (apparent Ki, CDK4/cyclin D3, Rb substrate) and 2.8 nM on CDK2/cyclin A (apparent Ki, CDK2/cyclin A, Rb substrate). Also, in the experiment with HCT-116 cell line (Homo sapiens, HCT-116, 120 h, MTT, three to five days), the IC50 is 44 nM.

As to `CN1CCCC1CCNC(=O)c1ccc(Nc2nc(N)c(C(=O)c3c(F)cccc3F)s2)cc1` (stereo not shown) [Example G147], on human CDK4/cyclin D3 (at 0.03 μM), the “CDK4 % Inhibition at 0.03 μM” value is recorded as 35%. Also, the “HCT-116 % Inhibition at 0.1 μM” value in the experiment on HCT-116 cell line (HCT-116, at 0.1 μM) was determined as 0%. Further, the “HCT-116 % Inhibition at 0.25 μM” value in the experiment with HCT-116 cell line (HCT-116, at 0.25 μM) was 65%. Moreover, the “CDK2 % Inhibition at 0.03 μM” value at CDK2/cyclin A (at 0.03 μM) was 10%.

Consider `NC(=O)C(CO)NC(=O)c1ccc(Nc2nc(N)c(C(=O)c3c(F)cccc3F)s2)cc1` (stereo not shown) [Example G198], for which the “CDK4 % Inhibition at 0.03 μM” value on human CDK4/cyclin D3 (0.03 μM compound) is listed as 42%. In the experiment with HCT-116 cell line (HCT-116 cells, 0.1 μM compound), the “HCT-116 % Inhibition at 0.1 μM” value is recorded as 9%. Further, the “HCT-116 % Inhibition at 0.25 μM” value with HCT-116 cell line (setting [1]) is 44%. Further, on CDK2/cyclin A (0.03 μM compound), the “CDK2 % Inhibition at 0.03 μM” value is given as 19%.

For the compound `CN(CC(O)c1ccccc1)C(=O)c1ccc(Nc2nc(N)c(C(=O)c3c(F)cccc3F)s2)cc1` (stereo not shown) [Example G225], the “CDK4 % Inhibition at 0.03 μM” value on human CDK4/cyclin D3 (0.03 μM compound) is recorded as 41%. Besides, the “HCT-116 % Inhibition at 0.1 μM” value with HCT-116 cell line (HCT-116 cells, 0.1 μM compound) was 0%. In addition, the “HCT-116 % Inhibition at 0.25 μM” value in the experiment with HCT-116 cell line (setting [1]) is 51%. The “CDK2 % Inhibition at 0.03 μM” value on CDK2/cyclin A (0.03 μM compound) was found to be 36%.

In the case of `NC(=O)C1CCN(C(=O)c2ccc(Nc3nc(N)c(C(=O)c4c(F)cccc4F)s3)cc2)CC1` [Example G43], on human CDK4/cyclin D3 (at 0.03 μM), the “CDK4 % Inhibition at 0.03 μM” value turned out to be 12%. In the experiment on HCT-116 cell line (HCT-116, at 0.25 μM), the “HCT-116 % Inhibition at 0.25 μM” value amounted to 62%. For the same compound, at CDK2/cyclin A (at 0.03 μM), the “CDK2 % Inhibition at 0.03 μM” value worked out at 5%.

In the case of `COC(=O)[C@H](C)NC(=O)c1ccc(Nc2nc(N)c(C(=O)c3c(F)cccc3F)s2)cc1` [Example G145], the “CDK4 % Inhibition at 0.03 μM” value at human CDK4/cyclin D3 (at 0.03 μM) amounted to 18%. The “HCT-116 % Inhibition at 0.1 μM” value with HCT-116 cell line (HCT-116, at 0.1 μM) was determined as 0%. Further, the “HCT-116 % Inhibition at 0.25 μM” value in the experiment with HCT-116 cell line (HCT-116, at 0.25 μM) was 68%. The “CDK2 % Inhibition at 0.03 μM” value at CDK2/cyclin A (at 0.03 μM) is listed as 19%.

The term IC50 denotes the concentration needed to halve the response being measured.
